Data set [1] relates to K562. Kind of data set: Antiproliferative activity against human K562 cells after 72 hrs by CellTiter Glo assay. The conditions noted are these: K562, 72 h. It counts as functional, cell-based.
Data set [2] deals with K562. The experiment in a line: Antiproliferative activity against imatinib-resistant human K562 cells over expressing MDR1 after 72 hrs by CellTiter Glo assay. It counts as functional, cell-based. The conditions noted are these: K562, 72 h.
In data set [3] the test system is A549. The experiment in a line: Antiproliferative activity against human A549 cells after 72 hrs by CellTiter Glo assay. It is filed as functional, cell-based. The conditions noted are these: A549, 72 h.
Data set [4] deals with HT-29. Kind of data set: Cell cycle arrest in human HT-29 cells assessed as accumulation of cells in G2/M phase at 0.1 to 5 nM measured after 24 hrs by PI staining based flow cytometry method. It is filed as functional. The conditions noted are these: dose 0.1-5 nM, DDE = dose-dependent effect.
For data set [5], the system named is HT-29. The experiment in a line: Induction of mitochondrial dysfunction in human HT-29 cells at 2 nM measured after 48 hrs by JC-1 staining based flow cytometry. It counts as functional, cell-based.
For data set [6], the target named is T1, Protein deacetylase HDAC6 (Homo sapiens, UniProt Q9UBN7).
T1 sequence (Q9UBN7 whole entry): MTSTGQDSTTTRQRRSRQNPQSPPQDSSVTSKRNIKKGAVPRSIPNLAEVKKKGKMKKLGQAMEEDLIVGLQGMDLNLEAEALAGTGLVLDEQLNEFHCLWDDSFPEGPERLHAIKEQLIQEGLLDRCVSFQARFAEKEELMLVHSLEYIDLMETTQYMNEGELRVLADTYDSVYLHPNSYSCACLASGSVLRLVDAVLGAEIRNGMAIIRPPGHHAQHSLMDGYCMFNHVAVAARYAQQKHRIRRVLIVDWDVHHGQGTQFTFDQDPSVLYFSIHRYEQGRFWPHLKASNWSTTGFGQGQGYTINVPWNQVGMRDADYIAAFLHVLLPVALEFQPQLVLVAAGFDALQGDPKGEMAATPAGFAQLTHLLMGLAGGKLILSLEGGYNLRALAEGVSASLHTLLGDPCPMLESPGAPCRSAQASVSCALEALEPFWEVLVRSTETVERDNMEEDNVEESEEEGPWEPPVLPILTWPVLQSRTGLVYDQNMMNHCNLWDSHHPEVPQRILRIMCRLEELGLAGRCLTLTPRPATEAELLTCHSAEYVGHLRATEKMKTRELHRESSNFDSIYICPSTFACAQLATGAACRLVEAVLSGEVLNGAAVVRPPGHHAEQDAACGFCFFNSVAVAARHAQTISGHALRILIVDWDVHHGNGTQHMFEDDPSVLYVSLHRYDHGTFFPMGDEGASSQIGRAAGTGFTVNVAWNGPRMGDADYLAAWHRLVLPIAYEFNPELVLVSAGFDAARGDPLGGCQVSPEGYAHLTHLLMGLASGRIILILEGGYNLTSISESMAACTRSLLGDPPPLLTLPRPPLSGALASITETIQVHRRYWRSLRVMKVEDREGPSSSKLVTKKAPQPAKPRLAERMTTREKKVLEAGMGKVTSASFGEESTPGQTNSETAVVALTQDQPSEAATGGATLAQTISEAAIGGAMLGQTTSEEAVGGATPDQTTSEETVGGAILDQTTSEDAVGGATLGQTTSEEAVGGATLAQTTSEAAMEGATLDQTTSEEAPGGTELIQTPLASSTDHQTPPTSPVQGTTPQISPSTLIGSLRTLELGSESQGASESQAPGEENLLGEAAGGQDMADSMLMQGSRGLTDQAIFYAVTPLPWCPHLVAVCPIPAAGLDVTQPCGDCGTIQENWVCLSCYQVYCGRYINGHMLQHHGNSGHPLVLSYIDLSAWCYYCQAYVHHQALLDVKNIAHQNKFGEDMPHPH
The experiment in a line: Inhibition of HDAC6 (unknown origin) measured by fluorometry assay.

The target in data set [7] is T2, Histone deacetylase 11 (Homo sapiens, UniProt Q96DB2).
T2 sequence (Q96DB2 whole entry): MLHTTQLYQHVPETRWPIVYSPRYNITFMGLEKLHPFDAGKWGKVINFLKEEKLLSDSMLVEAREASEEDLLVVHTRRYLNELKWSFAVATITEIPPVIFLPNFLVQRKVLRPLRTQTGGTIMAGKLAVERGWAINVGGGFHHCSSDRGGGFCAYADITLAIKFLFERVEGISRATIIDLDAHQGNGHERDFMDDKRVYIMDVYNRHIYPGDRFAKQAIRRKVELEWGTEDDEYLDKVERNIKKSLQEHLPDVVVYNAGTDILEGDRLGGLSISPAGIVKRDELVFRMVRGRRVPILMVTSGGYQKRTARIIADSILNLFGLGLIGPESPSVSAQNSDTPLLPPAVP
The experiment in a line: Inhibition of HDAC11 (unknown origin) measured by fluorometry assay.

In data set [8] the target is T3, Tubulin (Homo sapiens) (UniProt P68371+Q9H4B7+P0DPH7+P68366+Q13509+Q71U36+P04350+Q3ZCM7+P07437+P68363+Q9BQE3+Q6PEY2+Q13885+Q9BVA1+Q9BUF5). The experiment in a line: Inhibition of tubulin polymerization (unknown origin) at 10 uM in presence of GTP. It is filed as protein-complex assay.
In data set [9] the target is T3, Tubulin (Homo sapiens). Kind of data set: Inhibition of tubulin polymerization in human HeLa cells assessed as microtubule network polymerization at 250 nM after 30 mins by immunofluorescence analysis. It counts as cell-based.
Data set [10] in a line: Metabolic stability in rat liver microsomes assessed as half-life measured upto 6 hrs in presence of NADPH generating system by HPLC-MS/MS analysis. It is filed as ADME, Microsome.
Data set [11] in a line: Metabolic stability in human liver microsomes assessed as half-life measured upto 6 hrs in presence of NADPH generating system by HPLC-MS/MS analysis. It is filed as ADME, Microsome.
The nature of data set [12]: Antitumor activity against mouse MCA-205 cells allografted in female C57BL/6 mouse assessed as decrease in tumor growth at 0.25 to 0.5 mg/kg, IT(Intratumoral). It counts as functional. Also on record: scale not given: the % may be the effect or the level left. The settings on record: dose lower […], dose upper 0.5 mg/kg.
The nature of data set [13]: Toxicity in C57BL/6 mouse allografted with mouse MCA-205 cells assessed as effect on body weight at 0.1 to 0.5 mg/kg, IT(Intratumoral). It is filed as organism-based. The settings on record: in vivo, other, dose 0.1-0.5 mg/kg.

Structures are written as SMILES. pIC50: −log10 of the molar value. Activity calls are given as the source filed them. The calls are words filed in the database; no cut-off is given here.

Consider `COc1ccc(N(C)c2cc(C#N)nc3ccccc23)cc1/C=C/C(=O)NO`, for which the pIC50 in data set [1] was 9.46; in data set [2], 9.25; in data set [3], 9.08; in [6], 6.00; in [7], 5.72. Further, the Activity entry is “Dde” in data set [4], 70% in [12] and “Non-Toxic” in [13]. Moreover, the result in [5] was Active. In addition, the inhibition result in data set [8] and in [9] was “Active” in each case. The half-life in data set [10] was 6.6 h; in [11], 32 h.

The values above are taken from ChEMBL document CHEMBL5113481, “Design, synthesis and biological evaluation of quinoline-2-carbonitrile-based hydroxamic acids as dual tubulin polymerization and histone deacetylases inhibitors” (Eur J Med Chem, 2022).
